Reference: patent US20090176817A1, “Method of Treatment of Diarrhea-Predominant Irritable Bowel Syndrome in a Subject” (priority 2005, published 2009)

System: diarrhea-predominant IBS subjects
Assay: Study S241.3.011: weekly diary questions on adequate relief
Type: in vivo, human
Details: for Number of months a subject was a responder: Zero months (IBS symptoms) / Overall responder rate, adequate relief of IBS symptoms / Overall responder rate, adequate relief of abdominal pain/discomfort / Overall responder rate, adequate relief of abnormal bowel habits / Number of months a subject was a responder: One month (Abdominal pain/discomfort) / Number of months a subject was a responder: One month (Abnormal bowel habits) / Number of months a subject was a responder: One month (IBS symptoms) / Number of months a subject was a responder: Three months (Abdominal pain/discomfort) / Number of months a subject was a responder: Three months (Abnormal bowel habits) / Number of months a subject was a responder: Three months (IBS symptoms) / Number of months a subject was a responder: Two months (Abdominal pain/discomfort) / Number of months a subject was a responder: Two months (Abnormal bowel habits) / Number of months a subject was a responder: Two months (IBS symptoms) / Number of months a subject was a responder: Zero months (Abdominal pain/discomfort) / Number of months a subject was a responder: Zero months (Abnormal bowel habits): three-month treatment period; for Number of months a subject was a responder: Zero months (IBS symptoms) / Number of months a subject was a responder: One month (Abdominal pain/discomfort) / Number of months a subject was a responder: One month (Abnormal bowel habits) / Number of months a subject was a responder: One month (IBS symptoms) / Number of months a subject was a responder: Three months (Abdominal pain/discomfort) / Number of months a subject was a responder: Three months (Abnormal bowel habits) / Number of months a subject was a responder: Three months (IBS symptoms) / Number of months a subject was a responder: Two months (Abdominal pain/discomfort) / Number of months a subject was a responder: Two months (Abnormal bowel habits) / Number of months a subject was a responder: Two months (IBS symptoms) / Number of months a subject was a responder: Zero months (Abdominal pain/discomfort) / Number of months a subject was a responder: Zero months (Abnormal bowel habits): monthly LOCF; for Overall responder rate, adequate relief of IBS symptoms / Overall responder rate, adequate relief of abdominal pain/discomfort / Overall responder rate, adequate relief of abnormal bowel habits: observed case
Method: Study S241.3.011 was a Phase III, double-blind, placebo-controlled, randomized, multinational study to investigate the safety and efficacy of 2 mg TID of cilansetron for a period of 12 weeks followed by a rerandomized, placebo-controlled four-week treatment period, in diarrhea-predominant IBS subjects. The study was conducted in six countries including the US. A total of 2115 subjects consented to participate, and 770 subjects were randomized. A total of 746 subjects were analyzed for efficacy and 755 subjects were analyzed for safety. Diagnosis and main criteria for inclusion were IBS subjects satisfying the Rome I criteria (1992); the diarrhea predominant sub-population of the Rome II criteria; and a minimum abdominal pain/discomfort, stool frequency and consistency determined during the run-in period. Subjects were treated with cilansetron 2 mg tablets given orally TID or matching placebo tablets given orally TID for 12 weeks followed by a rerandomized, placebo-controlled four-week treatment period.
The primary efficacy parameter was the number of months that a subject was a responder for IBS symptoms (abdominal pain, abdominal discomfort, abnormal bowel habits) over the 12-week treatment period. A responder for a month (monthly responder) was defined as a subject who answered the weekly question with “yes” at least twice for that month. The two main secondary efficacy parameters were the monthly responder rates based on the “adequate relief” questions regarding abdominal pain/discomfort and abnormal bowel habits during the 12-week treatment period. The overall response rate and responder rate for the weekly diary questions on adequate relief at each month and all months, the adequate relief rate, the number of subjects with adequate relief by week, daily diary questions, IBS-QOL scores, and the interruption of activities were also assessed. Safety was evaluated by physical examination, ECG, vital signs, laboratory evaluations, concomitant medications, and AEs.
Subjects who were initially randomized to the cilansetron 2 mg TID group and rerandomized to placebo, will be referred to as the C/P treatment group; subjects initially randomized to the placebo group and rerandomized to placebo will be referred to as the P/P treatment group; the P/C and C/C treatment group nomenclature follow the same principle. Of the 591 subjects who completed the three-month treatment period, 576 subjects were rerandomized and thus divided into the following treatment groups: 150 subjects in the C/C treatment group, 140 subjects in the C/P treatment group, 136 subjects in the P/C treatment group, and 150 subjects in the P/P treatment group. Of the 576 subjects rerandomized, a higher percentage of subjects in the C/C treatment group (99%) completed the study compared with the C/P (95%), P/C (93%), and the P/P (95%) treatment groups.
Studies S24 1.3.OO6, S24 1.3.0 1 1, and S24 1.3.009 used the following efficacy measurements: • The subjects answered the following three questions with “yes” or “no” using a phone diary at the end of each week: • a) During the last week, did you experience adequate relief of your IBS symptoms, such as abdominal pain, abdominal discomfort, abnormal bowel habits? • b) During the last week, did you experience adequate relief of your abdominal pain and/or discomfort? • c) During the last week, did you experience adequate relief of your abnormal bowel habits? • The subjects rated the following symptoms using the phone diary at the end of each day: • abdominal pain/discomfort (five-point scale); • stool consistency (seven-point Bristol Stool Scale); • stool frequency (number of bowel movements each day); • urgency (five-point scale); • straining (yes or no); • feeling of incomplete defecation (yes or no); • bloating or feeling of abdominal distension (five-point scale). • In Studies S241 A006 and S241.3.009, subjects completed the IBS-QOL Survey at Baseline (Day 1) and at the end of treatment. […]

[1] = Baseline BMI: <30 kg/m^2, ITT, 2 mg TID
[2] = Baseline BMI: ≧30 kg/m^2, ITT, 2 mg TID
[3] = Baseline severity of IBS: non-severe, ITT, 2 mg TID
[4] = Baseline severity of IBS: severe, ITT, 2 mg TID
[5] = Duration of IBS: >24 months to ≦48 months, 2 mg TID, monthly LOCF imputation, ITT

SMILES: Cc1nccn1C[C@H]1CCc2c(c3cccc4c3n2CCC4)C1=O [Cilansetron, (R)-(−)-4,5,6,8,9,10-hexahydro-10-[(2-methyl-1H-imidazol-1-yl)methyl]-11H-pyrido-[3,2,1-jk]-carbazol-11-one]
- Number of months a subject was a responder: Zero months (IBS symptoms) [1]: 73 (27) n (%)
- Overall responder rate, adequate relief of IBS symptoms [1]: 148 (56) n (%)
- Overall responder rate, adequate relief of abdominal pain/discomfort [1]: 158 (59) n (%)
- Overall responder rate, adequate relief of abnormal bowel habits [1]: 150 (56) n (%)
- Number of months a subject was a responder: One month (Abdominal pain/discomfort) [2]: 15 (14) n (%)
- Number of months a subject was a responder: One month (Abnormal bowel habits) [2]: 17 (15) n (%)
- Number of months a subject was a responder: One month (IBS symptoms) [2]: 16 (14) n (%)
- Number of months a subject was a responder: Three months (Abdominal pain/discomfort) [2]: 46 (41) n (%)
- Number of months a subject was a responder: Three months (Abnormal bowel habits) [2]: 45 (41) n (%)
- Number of months a subject was a responder: Three months (IBS symptoms) [2]: 41 (37) n (%)
- Number of months a subject was a responder: Two months (Abdominal pain/discomfort) [2]: 22 (20) n (%)
- Number of months a subject was a responder: Two months (Abnormal bowel habits) [2]: 15 (14) n (%)
- Number of months a subject was a responder: Two months (IBS symptoms) [2]: 22 (20) n (%)
- Number of months a subject was a responder: Zero months (Abdominal pain/discomfort) [2]: 28 (25) n (%)
- Number of months a subject was a responder: Zero months (Abnormal bowel habits) [2]: 34 (31) n (%)
- Number of months a subject was a responder: Zero months (IBS symptoms) [2]: 32 (29) n (%)
- Overall responder rate, adequate relief of IBS symptoms [2]: 58 (52) n (%)
- Overall responder rate, adequate relief of abdominal pain/discomfort [2]: 63 (57) n (%)
- Overall responder rate, adequate relief of abnormal bowel habits [2]: 53 (48) n (%)
- Number of months a subject was a responder: One month (Abdominal pain/discomfort) [3]: 25 (11) n (%)
- Number of months a subject was a responder: One month (Abnormal bowel habits) [3]: 26 (12) n (%)
- Number of months a subject was a responder: One month (IBS symptoms) [3]: 29 (13) n (%)
- Number of months a subject was a responder: Three months (Abdominal pain/discomfort) [3]: 97 (44) n (%)
- Number of months a subject was a responder: Three months (Abnormal bowel habits) [3]: 88 (40) n (%)
- Number of months a subject was a responder: Three months (IBS symptoms) [3]: 92 (41) n (%)
- Number of months a subject was a responder: Two months (Abdominal pain/discomfort) [3]: 40 (18) n (%)
- Number of months a subject was a responder: Two months (Abnormal bowel habits) [3]: 40 (18) n (%)
- Number of months a subject was a responder: Two months (IBS symptoms) [3]: 39 (18) n (%)
- Number of months a subject was a responder: Zero months (Abdominal pain/discomfort) [3]: 60 (27) n (%)
- Number of months a subject was a responder: Zero months (Abnormal bowel habits) [3]: 68 (31) n (%)
- Number of months a subject was a responder: Zero months (IBS symptoms) [3]: 62 (28) n (%)
- Overall responder rate, adequate relief of IBS symptoms [3]: 124 (56) n (%)
- Overall responder rate, adequate relief of abdominal pain/discomfort [3]: 131 (59) n (%)
- Overall responder rate, adequate relief of abnormal bowel habits [3]: 121 (55) n (%)
- Number of months a subject was a responder: One month (Abdominal pain/discomfort) [4]: 20 (13) n (%)
- Number of months a subject was a responder: One month (Abnormal bowel habits) [4]: 24 (15) n (%)
- Number of months a subject was a responder: One month (IBS symptoms) [4]: 25 (16) n (%)
- Number of months a subject was a responder: Three months (Abdominal pain/discomfort) [4]: 62 (40) n (%)
- Number of months a subject was a responder: Three months (Abnormal bowel habits) [4]: 61 (39) n (%)
- Number of months a subject was a responder: Three months (IBS symptoms) [4]: 56 (36) n (%)
- Number of months a subject was a responder: Two months (Abdominal pain/discomfort) [4]: 32 (21) n (%)
- Number of months a subject was a responder: Two months (Abnormal bowel habits) [4]: 26 (17) n (%)
- Number of months a subject was a responder: Two months (IBS symptoms) [4]: 31 (20) n (%)
- Number of months a subject was a responder: Zero months (Abdominal pain/discomfort) [4]: 41 (26) n (%)
- Number of months a subject was a responder: Zero months (Abnormal bowel habits) [4]: 44 (28) n (%)
- Number of months a subject was a responder: Zero months (IBS symptoms) [4]: 43 (28) n (%)
- Overall responder rate, adequate relief of IBS symptoms [4]: 82 (53) n (%)
- Overall responder rate, adequate relief of abdominal pain/discomfort [4]: 90 (58) n (%)
- Overall responder rate, adequate relief of abnormal bowel habits [4]: 82 (53) n (%)
- Overall responder rate, IBS symptoms (Caucasians): 53%
- Overall responder rate, abdominal pain/discomfort (Caucasians): 57%
- Overall responder rate, abnormal bowel habits (Caucasians): 51%
- Number of months a subject was a responder during the three-month treatment period: Abdominal pain/discomfort, One month [5]: 10 (14) n (%)
- Number of months a subject was a responder during the three-month treatment period: Abdominal pain/discomfort, Three months [5]: 32 (44) n (%)
- Number of months a subject was a responder during the three-month treatment period: Abdominal pain/discomfort, Two months [5]: 15 (21) n (%)
- Number of months a subject was a responder during the three-month treatment period: Abdominal pain/discomfort, Zero months [5]: 15 (21) n (%)
- Number of months a subject was a responder during the three-month treatment period: Abnormal bowel habits, One month [5]: 10 (14) n (%)
- Number of months a subject was a responder during the three-month treatment period: Abnormal bowel habits, Three months [5]: 32 (44) n (%)
